Measurements taken from patent US20210253575A1, “PYRROLIDINE AMINE COMPOUNDS FOR THE TREATMENT OF AUTOIMMUNE DISEASE” (Hoffmann-La Roche Inc., priority 2018, published 2021).

Molecular target: T1, human TLR7 (Homo sapiens, UniProt Q9NYK1)
T1 sequence (Q9NYK1 27-1049): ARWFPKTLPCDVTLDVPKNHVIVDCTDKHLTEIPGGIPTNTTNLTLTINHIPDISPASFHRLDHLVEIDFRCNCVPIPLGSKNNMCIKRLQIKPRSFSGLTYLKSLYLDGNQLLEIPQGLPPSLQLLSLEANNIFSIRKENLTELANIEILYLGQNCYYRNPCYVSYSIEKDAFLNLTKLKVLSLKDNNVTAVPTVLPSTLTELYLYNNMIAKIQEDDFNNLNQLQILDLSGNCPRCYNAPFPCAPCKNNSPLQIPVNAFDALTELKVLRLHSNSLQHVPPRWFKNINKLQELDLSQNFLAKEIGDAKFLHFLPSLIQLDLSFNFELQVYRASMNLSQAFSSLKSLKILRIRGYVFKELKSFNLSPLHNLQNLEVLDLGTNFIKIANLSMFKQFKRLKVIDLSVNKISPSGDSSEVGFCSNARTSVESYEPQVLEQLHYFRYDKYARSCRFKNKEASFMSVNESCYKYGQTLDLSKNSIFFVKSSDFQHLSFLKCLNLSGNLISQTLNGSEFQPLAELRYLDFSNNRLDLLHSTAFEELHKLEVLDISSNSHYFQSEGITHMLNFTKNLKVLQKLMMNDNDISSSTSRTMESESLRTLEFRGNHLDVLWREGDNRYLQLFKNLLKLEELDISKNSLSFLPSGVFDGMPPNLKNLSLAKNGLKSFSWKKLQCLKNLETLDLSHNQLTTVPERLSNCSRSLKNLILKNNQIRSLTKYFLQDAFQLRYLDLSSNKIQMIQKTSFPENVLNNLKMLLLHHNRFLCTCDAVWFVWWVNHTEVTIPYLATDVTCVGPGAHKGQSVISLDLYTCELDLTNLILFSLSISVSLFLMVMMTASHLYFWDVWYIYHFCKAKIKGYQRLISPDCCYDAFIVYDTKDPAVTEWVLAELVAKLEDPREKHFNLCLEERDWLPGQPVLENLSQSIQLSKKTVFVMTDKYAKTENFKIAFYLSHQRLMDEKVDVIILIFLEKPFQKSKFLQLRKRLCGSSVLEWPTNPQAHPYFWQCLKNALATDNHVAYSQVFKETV
Assay: HEK293-Blue-hTLR-7 cells assay (SEAP reporter, R848 stimulation)
Type: cell-based
Details: HEK293-Blue-hTLR7 cells, R848 ligand, 20 hrs incubation
How it was run: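 Antagonism measured in stable HEK293-Blue-hTLR7 cells carrying an NF-κB/AP-1-driven SEAP reporter, stimulated with R848 (10 µL of 20 µM stock) with serially diluted compound, 1% DMSO, 20 h at 37 °C. Supernatant SEAP read with QUANTI-Blue after 2 h at 37 °C, absorbance 620–655 nm.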

SMILES	IC50
N#Cc1ccc(N2C[C@H](CN3CC4CNCC4C3)[C@@H](C(F)(F)F)C2)c2nccnc12 (stereo partly drawn) [Example 76, 8-[(3S,4R)-3-(2,3,3a,4,6,6a-hexahydro-1H-pyrrolo[3,4-c]pyrrol-5-ylmethyl)-4-(trifluoromethyl)pyrrolidin-1-yl]quinoxaline-5-carbonitrile]	21 nM
N#Cc1ccc(N2C[C@H](CN3CC4CCC3CN4)[C@@H](C(F)(F)F)C2)c2nccnc12 (stereo partly drawn) [Example 77, 8-[(3S,4R)-3-(2,5-diazabicyclo[2.2.2]octan-2-ylmethyl)-4-(trifluoromethyl)pyrrolidin-1-yl]quinoxaline-5-carbonitrile]	13 nM
N#Cc1ccc(N2C[C@H](CN3CCCC(F)(CN)C3)[C@@H](C(F)(F)F)C2)c2nccnc12 (stereo partly drawn) [Example 78, 8-[(3S,4R)-3-[[3-(aminomethyl)-3-fluoro-1-piperidyl]methyl]-4-(trifluoromethyl)pyrrolidin-1-yl]quinoxaline-5-carbonitrile]	32 nM
N#Cc1ccc(N2C[C@H](CN3CCC(CCN)CC3)[C@@H](C(F)(F)F)C2)c2nccnc12 [Example 79, 8-[(3S,4R)-3-[[4-(2-aminoethyl)-1-piperidyl]methyl]-4-(trifluoromethyl)pyrrolidin-1-yl]quinoxaline-5-carbonitrile]	37 nM
CN(C)C1CCN(C[C@H]2CN(c3ccc(C#N)c4nccnc34)C[C@@H]2C(F)(F)F)CC1 [Example 80, 8-[(3S,4R)-3-[[4-(dimethylamino)-1-piperidyl]methyl]-4-(trifluoromethyl)pyrrolidin-1-yl]quinoxaline-5-carbonitrile]	14 nM
CNCC1CCN(C[C@H]2CN(c3ccc(C#N)c4nccnc34)C[C@@H]2C(F)(F)F)CC1 [Example 81, 8-[(3S,4R)-3-[[4-(methylaminomethyl)-1-piperidyl]methyl]-4-(trifluoromethyl)pyrrolidin-1-yl]quinoxaline-5-carbonitrile]	32 nM
CN(C)C[C@@H]1CCN(C[C@H]2CN(c3ccc(C#N)c4nccnc34)C[C@@H]2C(F)(F)F)C1 [Example 82, 8-[(3S,4R)-3-[[(3S)-3-[(dimethylamino)methyl]pyrrolidin-1-yl]methyl]-4-(trifluoromethyl)pyrrolidin-1-yl]quinoxaline-5-carbonitrile]	106 nM
